The values that follow come from US5665777A, “Biphenyl hydroxamate inhibitors of matrix metalloproteinases” (Abbott Laboratories, priority 1995, dated 1997).

One experiment relates to TNFα secretion. Briefly: HL-60 TNFα Release Assay (inhibition of TNFα secretion, ELISA). The note with it: Homo sapiens, HL-60 cells, 40 nM phorbol myristate acetate, 20 hr at 37° C. Format: cell-based. As to the method: The inhibition of TNFα secretion by the compounds of this invention was determined using a HL-60 TNFα Release Assay. HL-60 cells were cultured in RPMI 1640 with 10% fetal bovine serum and penicillin/streptomycin. HL-60 cells (150,000 cells/well) were placed in 96 well culture plates in RPMI 1640 with 10% fetal bovine serum and pen/strep containing 40 nM phorbol myristate acetate and test compound in DMSO (final DMSO 0.1%). HL-60 cells were then cultured for 20 hr at 37° C. (95% humidity) after which cell supernatants were collected for analysis of TNFα by ELISA.
A general note: An ELISA detects its analyte on a solid surface through an enzyme-linked reagent.

The target of another experiment is T1, stromelysin (Homo sapiens, UniProt P08254).
T1 construct: made in house; host or cells: E. coli
T1 sequence (P08254 100-273 limits assumed): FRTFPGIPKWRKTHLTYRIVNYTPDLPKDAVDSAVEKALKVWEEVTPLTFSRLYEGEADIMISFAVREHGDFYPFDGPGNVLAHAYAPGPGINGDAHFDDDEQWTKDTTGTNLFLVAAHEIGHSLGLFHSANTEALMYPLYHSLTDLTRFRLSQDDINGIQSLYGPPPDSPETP
Briefly: Determination of stromelysin inhibition (cleavage of thiopeptide ester substrate, DTNB readout). Format: biochemical. Particulars: for IC50: recombinant truncated human stromelysin, pH 6.5, 30 min, ambient temperature, read-out: IC50, inhibitory potency against stromelysin. As to the method: The inhibition of stromelysin by the compounds of this invention was determined as follows: Recombinant truncated stromelysin (human sequence) produced in E. coli was prepared by expression and purification of the protein as described by Ye et al., Biochemistry, 1992, 31, 11231-11235. The enzyme was assayed by its cleavage of the thiopeptide ester substrate Ac-Pro-Leu-Gly-[2-mercapto-4-methyl-pentanoyl]-Leu-Gly-OEt described by Weingarten and Feder, Anal Biochem., 1985, 147, 437-440 (1985), as a substrate of vertebrate collagenase. The reported conditions were modified to allow assays to be carried out in a microtiter plate. Upon hydrolysis of the thioester bond, the released thiol group reacts rapidly with 5,5'-dithio-bis(2-nitrobenzoic acid) (DTNB), producing a yellow color which is measured by a microtiter plate reader set al 405 nm. The rates of cleavage of the substrate by stromelysin in the presence or absence of inhibitors are measured in a 30 min assay at ambient temperature. Solutions of the compounds in DMSO are prepared, and these are diluted at various concentrations into the assay buffer (50 mM MES/NaOH pH 6.5 with 10 mM CaCl2 and 0.2% Pluronic F-68), which is also used for dilution of the enzyme and substrate. The potency of the compounds [IC50 ] are calculated from the inhibition/inhibitor concentration data.

In the case of `O=C(CCCOc1ccc(-c2ccc(Cl)cc2)cc1)NO` [Example 7, 4-[4-(4-chlorophenyl)phenoxy]butanohydroxamic acid], the inhibition – broadly, the change of the read-out against control, counted positive when it falls – at 16 µM with TNFα secretion was determined as 35%. For the same compound, at 100 µM the inhibition at stromelysin was 47%.

Take `N#Cc1ccc(-c2cccc(OCCCCC(=O)NO)c2)cc1` [Example 14, 5-[3-(4-cyanophenyl)phenoxy]pentanohydroxamic acid]: at 16 µM the inhibition in the experiment with TNFα secretion was 64%. Further, the IC50 (usually the concentration needed to halve the response being measured) on stromelysin is 123000 nM.

For `O=C(CCCCCOc1ccc(-c2ccccc2)cc1)NO` [Example 21, 6-[4-phenylphenoxy]hexanohydroxamic acid], the concentration for half-maximal inhibition (IC50) at stromelysin was 77000 nM.

In the experiment with TNFα secretion, `O=C(CCCOc1ccc(-c2ccccc2)cc1)NO` [Example 1, 4-(4-phenylphenoxy)butanohydroxamic acid] yielded an inhibition at 16 µM of 27%.

Take `O=C(CCNc1ccc(-c2ccccc2)cc1)NO` [Example 32, 3-(4-biphenylamino)propanohydroxamic acid]: on stromelysin, the IC50 came to 4600 nM.

`O=C(CCCCc1ccc(-c2ccccc2)cc1)NO` [Example 38, 5-(4-biphenyl)pentanohydroxamic acid] came in with an inhibition at 16 µM in the experiment with TNFα secretion of 65%. For the same compound, the IC50 on stromelysin was determined as 1000 nM.

With `N#CCc1cccc(-c2ccc(OCCC(=O)NO)cc2)c1` [Example 42, 3-[4-(3-cyanomethylphenyl)phenoxy]propanohydroxamic acid], at stromelysin, the IC50 was determined as 15 nM.

Turning to `COc1ccc(-c2ccc(OCCC(=O)NO)cc2)cc1` [Example 26, 3-[4-(4-methoxyphenyl)phenoxy]propanohydroxamic acid], the IC50 at stromelysin turned out to be 79 nM.

`O=C(CCCCOc1cccc(-c2ccc(F)cc2)c1)NO` [Example 12, 5-[3-(4-fluorophenyl)phenoxy]pentanohydroxamic acid] had an inhibition at 16 µM in the experiment with TNFα secretion of 62%. Further, the inhibition at 100 µM against stromelysin is 20%.

`CC(C)(C)OC(=O)CC(CCOc1ccc(-c2ccc(C#N)cc2)cc1)C(=O)NO` (stereo not shown) [Example 43, 2-tert-butyloxycarbonylmethyl-4-[4-(4-cyanophenyl)phenoxy]butanohydroxamic acid]: the IC50 on stromelysin is 490 nM.

In the case of `O=C(CCCOc1cccc(-c2ccc(F)cc2)c1)NO` [Example 15, 4-[3-(4-fluorophenyl)phenoxy]butanohydroxamic acid], the inhibition at 16 µM in the experiment on TNFα secretion came out at 63%. The IC50 at stromelysin was determined as 74000 nM.

`CNC(=O)C(CCOc1ccc(-c2ccc(C#N)cc2)cc1)CC(=O)NO` (stereo not shown) [Example 29, 3-(N-methylcarboxamido)-5-[4-(4-cyanophenyl)phenoxy]pentanohydroxamic acid]: on stromelysin, the IC50 is 350 nM.

As to `O=C(CCCOc1ccc(-c2ccccc2)cc1O)NO` [Example 40, 4-(2-hydroxy-4-phenylphenoxy)butanohydroxamic acid], at stromelysin, testing at 100 µM gave an inhibition of 39%.

As to `N#Cc1ccc(-c2cccc(OCCCC(=O)NO)c2)cc1` [Example 16, 4-[3-(4-cyanophenyl)phenoxy]butanohydroxamic acid], the IC50 at stromelysin amounted to 24000 nM.

With `O=C(NO)C(O)COc1ccc(-c2ccccc2)cc1` (stereo not shown) [Example 45, 2-hydroxy-3-[(4-phenyl)phenoxy]propanohydroxamic acid], on stromelysin, the IC50 is 2300 nM.

For the compound `N#Cc1ccc(-c2ccc(OCCCC(=O)NO)cc2)cc1` [Example 3, 4-[4-(4-cyanophenyl)phenoxy]butanohydroxamic acid], the IC50 on stromelysin amounted to 3500 nM.

As for `N#CCc1cccc(-c2ccc(OCCCC(=O)NO)cc2)c1` [Example 6, 4-[4-(3-cyanomethylphenyl)phenoxy]butanohydroxamic acid], at 16 µM the inhibition in the experiment on TNFα secretion was 40%. Besides, the 50% inhibitory concentration (IC50) at stromelysin worked out at 1900 nM.

As for `O=C(CCCCCCOc1ccc(-c2ccccc2)cc1)NO` [Example 10, 7-(4-phenylphenoxy)heptanohydroxamic acid], at stromelysin, the inhibition at 100 µM is 45%.

In the case of `N#Cc1ccc(-c2ccc(OCCCCCCC(=O)NO)cc2)cc1` [Example 11, 7-[4-(4-cyanophenyl)phenoxy]heptanohydroxamic acid], the inhibition at 16 µM with TNFα secretion came to 77%. Moreover, the 50% inhibitory concentration (IC50) at stromelysin was determined as 2300 nM.

On to `O=C(CCOc1ccc(-c2ccc(F)cc2)cc1)NO` [Example 27, 3-[4-(4-fluorophenyl)phenoxy]propanohydroxamic acid], for which the IC50 on stromelysin was found to be 190 nM.

Compound `O=C(CCCCOc1cccc(-c2ccccc2)c1)NO` [Example 18, 5-[3-phenylphenoxy]pentanohydroxamic acid] had an inhibition at 16 µM in the experiment with TNFα secretion of 62%. Moreover, the IC50 on stromelysin was determined as 74000 nM.

The compound `CCCc1ccc(-c2ccc(OCCCC(=O)NO)cc2)cc1` [Example 8, 4-[4-(4-propylphenyl)phenoxy]butanohydroxamic acid] showed an inhibition at 16 µM in the experiment with TNFα secretion of 35%. For the same compound, the IC50 on stromelysin turned out to be 10000 nM.

Turning to `O=C(CCCCOc1ccc(-c2ccc(F)cc2)cc1)NO` [Example 39, 5-[4-(4-fluorophenyl)phenoxy]pentanohydroxamic acid], 100 µM produced 47% inhibition on stromelysin.

For `O=C(CCc1ccc(-c2ccccc2)cc1)NO` [Example 37, 3-(4-biphenyl)propanohydroxamic acid], the IC50 on stromelysin was determined as 30000 nM.

For `N#Cc1ccc(-c2ccc(OCCCCC(=O)NO)cc2)cc1` [Example 20, 5-[4-(4-cyanophenyl)phenoxy]pentanohydroxamic acid], in the experiment on TNFα secretion, the inhibition at 16 µM was determined as 50%.

`O=C(CSc1ccc(-c2ccccc2)cc1)NO` [Example 31, 2-(4-biphenylthio)ethanohydroxamic acid]: the half-maximal inhibitory concentration (IC50) on stromelysin worked out at 880 nM.

`N#CCc1ccc(-c2ccc(OCCCC(=O)NO)cc2)cc1` [Example 5, 4-[4-(4-cyanomethylphenyl)phenoxy]butanohydroxamic acid] returned an inhibition at 16 µM with TNFα secretion of 82%. Also, the IC50 on stromelysin worked out at 21000 nM.

Take `O=C(CCOc1cccc(-c2ccccc2)c1)NO` [Example 24, 3-(3-phenylphenoxy)propanohydroxamic acid]: in the experiment on TNFα secretion, testing at 16 µM gave an inhibition of 59%. The inhibition at 10 µM against stromelysin (@ 10 μM) came out at 14%.

For the compound `N#CCc1ccc(-c2ccc(OCCC(=O)NO)cc2)cc1` [Example 44, 3-[4-(4-cyanomethylphenyl)phenoxy]propanohydroxamic acid], the IC50 at stromelysin is 190 nM.

Consider `O=C(CCSc1ccc(-c2ccccc2)cc1)NO` [Example 30, 3-(4-biphenylthio)propanohydroxamic acid], for which, on stromelysin, the IC50 was 2100 nM.

On to `N#Cc1cccc(-c2ccc(OCCCC(=O)NO)cc2)c1` [Example 4, 4-[4-(3-cyanophenyl)phenoxy]butanohydroxamic acid], for which at 16 µM the inhibition with TNFα secretion was 64%. For the same compound, the IC50 at stromelysin is 46000 nM.

`C[C@@H](COc1ccc(-c2ccccc2)cc1)C(=O)NO` [Example 28, (S)2-methyl-3-(4-phenylphenoxy)propanohydroxamic acid]: the IC50 at stromelysin is 150 nM.

For `N#Cc1ccc(-c2ccc(CCCC(=O)NO)cc2)cc1` [Example 35, 4-[4-(4-cyanophenyl)phenyl]butanohydroxamic acid], the IC50 on stromelysin was 8300 nM.

As for `N#Cc1cccc(-c2cccc(OCCCCC(=O)NO)c2)c1` [Example 13, 5-[3-(3-cyanophenyl)phenoxy]pentanohydroxamic acid], the inhibition at 16 µM with TNFα secretion was 67%. On stromelysin, this compound displayed an inhibition at 100 µM of 24%.

On stromelysin, `O=C(CCCOc1cccc(-c2ccccc2)c1)NO` [Example 2, 4-(3-phenylphenoxy)butanohydroxamic acid] came in with an inhibition at 100 µM of 5%.

In turn, `O=C(Cc1ccc(-c2ccccc2)cc1)NO` [Example 33, 2-(4-biphenyl)ethanohydroxamic acid] showed an inhibition at 100 µM against stromelysin of 14%.

As for `COc1ccc(-c2ccc(OCCCC(=O)NO)cc2)cc1` [Example 9, 4-[4-(4-methoxyphenyl)phenoxy]butanohydroxamic acid], the IC50 on stromelysin stood at 34000 nM.

Compound `O=C(CCCOc1cc(-c2ccccc2)ccc1O)NO` [Example 41, 4-(2-hydroxy-5-phenylphenoxy)butanohydroxamic acid] had an inhibition at 100 µM on stromelysin of 36%.

`O=C(CCCCOc1ccc(-c2ccccc2)cc1)NO` [Example 19, 5-[4-phenylphenoxy]pentanohydroxamic acid] gave an inhibition at 16 µM in the experiment on TNFα secretion of 61%.

`O=C(CCCc1ccc(-c2ccccc2)cc1)NO` [Example 34, 4-(4-biphenyl)butanohydroxamic acid] came in with an inhibition at 16 µM in the experiment with TNFα secretion of 52%. On stromelysin, the IC50 amounted to 58000 nM.

`N#Cc1cccc(-c2cccc(OCCCC(=O)NO)c2)c1` [Example 17, 4-[3-(3-cyanophenyl)phenoxy]butanohydroxamic acid]: the IC50 on stromelysin was 2500 nM.
